In patent publication US20140296346A1, “Crystalline Forms of (-)-(1R,2R)-3-(3-dimethylamino-1-ethyl-2-methylpropyl)-phenol hydrochloride” (priority 2004, published 2014):
Structures can show the parent of a compound that is named as a salt.

How the values were obtained:
[1] = Variable temperature X-ray powder diffraction experiment; format: physicochemical; conditions: variable temperature XRPD
Protocol: Variable Temperature X-Ray Powder Diffraction Experiment
A variable temperature X-ray powder diffraction experiment was run thereby producing Form B from Form A. Form A converted to Form B from 40-50° C. during the experiment.

[2] = Stability of the crystalline form under ambient conditions

## CC[C@@H](c1cccc(O)c1)[C@@H](C)CN(C)C.Cl [Form B, (-)-(1R,2R)-3-(3-dimethylamino-1-ethyl-2-methylpropyl)-phenol hydrochloride]
[1]; at lower temperature
  Reversibility of the polymorphic conversion: changing over into Form A at lower temperature

## CC[C@@H](c1cccc(O)c1)[C@@H](C)CN(C)C [Form A, (-)-(1R,2R)-3-(3-dimethylamino-1-ethyl-2-methylpropyl)-phenol hydrochloride]
[2]
  Stability at ambient conditions: very stable
[2]; relative to Form B
  Stability under ambient conditions compared with Form B: more stable
[1]; on heating
  Temperature at which Form A converted to Form B: 40-50 °C
